Measurements: US9433663B2, “Mobilization of hematopoietic stem cells” (Children's Hospital Medical Center, priority 2008, dated 2016)

Columns and labels:
[1] = system: human CD34^+ umbilical cord blood cells; assay: adhesion of human CD34+ HCB cells; format: cell-based; settings: 5 μM
Experimental: FIG. 4B. Relative adhesion of CD34^+ HCB cells in the presence of CASIN at dose of 5 μM in comparison to that of control.
(§1) To begin to study potential utility of CASIN in human hematopoietic stem cell mobilization, a series of cellular assays were carried out to determine the effects on human CD34^+ umbilical cord blood cells (HCBs). […] The effects of CASIN on human hematopoietic cell mobilization was therefore tested using a well established preclinical in vivo model (NOD/SCID-Hcb) of human hematopoietic function, where fresh CD34^+ hCB cells were transplanted into sub-lethally irradiated NOD/SCIDs by intrafemoral injection, and repopulated and maintained human hematopoietic reconstitution in the bone marrow of NOD/SCID recipient mice (FIG. 9b, FIG. 11) (Larochelle, A. et al. Nat Med 2, 1329-1337 (1996); Bhatia, M., et al. Proc Natl Acad Sci USA 94, 5320-5325 (1997)). Intravenous injections of CASIN were applied when human cells were well engrafted in the NOD/SCID recipients.

[2] = biological target: Cdc42 (Mus musculus, UniProt P60766); assay: Rho GTPase pull-down of BM cells after in vivo administration; set-up: from tissue; host or cells: bone marrow (LDBM) cells of C57Bl/6 mice; settings: C57Bl/6 mice; FIG. 8a legend: BM cells harvested 20 mins after CASIN administration
Experimental: FIG. 8A. CASIN inhibited Cdc42 activity in BM cells harvested from C57Bl/6 mice 20 mins after CASIN administration.
Whether CASIN administration can induce mobilization of HSC/Ps to peripheral blood of C57Bl/6 mice, mimicking the phenotype observed in Cdc42 conditional knockout mice, was evaluated. First of all, mobilization of hematopoietic progenitor cells was examined by CFU-C assays functionally (FIG. 3a). […] Secondarily, to further explore the ability of CASIN to mobilize LT-HSC which is crucial for long-term repopulation of the mobilized cells, serial transplantations were carried out, where 20 million PB from CASIN-mobilized C57Bl/6 mice was transplanted into primary recipient of NOD/SCID mice, and subsequent secondary and tertiary transplants were finished as well using prior BMs (FIG. 3c). Donor chimerisms were assessed by using H2K^b congenic marker which is positive for donors of C57Bl/6 strain and negative for recipients of NOD/SCID strain. […] Therefore, the studies show CASIN can efficiently mobilize colony-forming hematopoietic progenitors and LT-HSCs with self-renewal and multi-lineage differentiation capacity. Thirdly, to further investigate the potential of CASIN to vacate the BM niche after mobilization, six-color staining of the BM cells was performed from C57Bl/6 mice with or without CASIN treatment followed by FACS analysis. […]

[3] = system: human CD34^+ umbilical cord blood cells; assay: flow cytometry of F-actin polymerization in human CD34+ HCB cells; format: cell-based; settings: human CD34^+ HCBs, SDF-1α induced
Experimental: FIG. 4A. SDF-1α induced F-actin polymerization over time without or with gradient CASIN treatment, determined by MFI using FACS analysis.
as §1

[4] = system: LDBM cells; assay: CFU-migration assay of LDBM progenitors towards SDF-1α; format: cell-based, murine
Excerpt: To shed light on potential roles of CASIN in HSPC mobilization, the effects of CASIN on Cdc42-related cellular functions was studied, including adhesion, migration, and F-actin polymerization of progenitor cells in 32D myeloid progenitors. […] SDF-1α stimulation causes a reorganization of F-actin into a cortical ring around the cells. […] Thirdly, to gain further insight into cellular specificity and efficacy of CASIN, and also to rule out possible toxic effects by CASIN, Cdc42-involved BM progenitor cell functions were examined, including proliferation, adhesion, migration, and F-actin polymerization, in Cdc42^+/+ cells in parallel with Cdc42^−/− cells. In line with additional studies in a Cdc42 conditional knockout mouse model as described herein, Cdc42^−/− LDBM cells have increased CFU-forming progenitors compared to those of Cdc42^+/+.
Murine LDBM cells from Cdc42^+/+ as well as Cdc42^−/− mice were used for CFU-adhesion/migration experiments as described previously. Briefly, for adhesion experiment, in the presence or absence of prior CASIN treatment at doses of 5 and 10 μM, 10^5 cells were plated onto each well of 48-well plates pre-coated with fibronectin fragment CH296, which contains integrin α4β1-binding site. Adherent cells then were harvested by cells dissociation buffer (Gibco, Carlsbad, Calif.), and further plated in CFU assay. […]

[5] = system: N-RasMA93 cells; assay: F-actin reorganization of N-RasMA93 leukemia cells; format: cell-based, human; settings: in vitro
Experimental: FIG. 5A. SDF-1α induced F-actin polymerization without or with gradient CASIN pre-treatments was determined by MFI using FACS analysis.
Like normal HSCs, their malignant counterpart, leukemia initiating cells (LICs) reside in their BM niches that provide the structural and physiological conditions supporting their survival and growth. LICs are resistant to traditional chemotherapy by interacting with their BM microenvironment, which are the culprits of leukemia relapses after a period of remission induced by chemotherapy. Detachment of LICs from their niche by CASIN would be a valuable supplementary therapy to the traditional cancer therapies (e.g., chemotherapies). First of all, in vitro effects of CASIN were examined in adhesion, migration, and F-actin polymerization of LICs, each of which is independently important for the retention of LICs in BM niches. Retroviral transduction of an MLL-AF9 fusion cDNA together with N-Ras oncogene into normal human CD34^+cord blood cells led to the establishment of cultures of N-Ras-MA93 cells that can initiate acute myeloid leukemia in NOG mice. […] To address it, a human AML model was set up by transplanting N-RasMA93 cells into NOG mice intravenously.

[6] = system: leukemia cells; assay: apoptosis of leukemia cells by FACS analysis; format: cell-based, human; settings: after 24 hrs' CASIN pre-treatment, FIG. 5D

Cdc42, sequence (P60766 whole entry): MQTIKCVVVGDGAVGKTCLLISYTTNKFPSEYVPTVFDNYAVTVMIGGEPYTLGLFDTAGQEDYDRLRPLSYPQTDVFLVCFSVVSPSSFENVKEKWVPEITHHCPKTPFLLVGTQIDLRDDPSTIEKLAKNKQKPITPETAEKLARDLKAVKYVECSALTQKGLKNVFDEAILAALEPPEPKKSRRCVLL

For OCCNC1CCCc2c1[nH]c1ccc(-c3ccccc3)cc21 (stereo not drawn) [CASIN], the “adhesion activity of human progenitors” value [1] was “significantly dampened”, the “Cdc42 activity in LDBM cells after in vivo administration” value [2] was “really down” and the F-actin polymerization [3] was “inhibited F-actin polymerization of these human progenitors dose-dependently”. For the same molecule, the “directional migration capacity of Cdc42^−/− cells” value [4] was “did not affect”, the “F-actin reorganization capacity of N-RasMA93 cells” value [5] was “significantly impaired” and the “apoptosis of leukemia cells” value [6] was “precipitated leukemia cells to apoptosis”.
